Laboratory results published in PubChem BioAssay (NCI).
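Cultured in 96-well plates, cells were exposed to test compound for 48 hours across five concentrations. Abbreviation: GI50, concentration required for 50% inhibition of growth. Definition used: TGI = concentration required for complete inhibition of growth.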

What was measured:
Assay in all cases: NCI tumour cell line growth inhibition, 48 h
[1] = system: A549 NSCLC
[2] = system: CAKI-1 renal
[3] = system: HCC-2998 colon
[4] = system: HOP-92 NSCLC
[5] = system: NCI-H23 lung
[6] = system: SK-OV-3 ovarian
[7] = system: TK-10 renal
[8] = system: UACC-62 melanoma
[9] = system: SR leukemia
[10] = system: MDA-MB-231 breast

| Structure (SMILES) | TGI [1] [µM] | TGI [2] [µM] | TGI [3] [µM] | TGI [4] [µM] | TGI [5] [µM] | TGI [6] [µM] | TGI [7] [µM] | TGI [8] [µM] | TGI [9] [µM] | GI50 [1] [µM] | GI50 [2] [µM] | GI50 [3] [µM] | GI50 [4] [µM] | GI50 [5] [µM] | GI50 [6] [µM] | GI50 [7] [µM] | GI50 [8] [µM] | GI50 [10] [nM] | TGI [10] [µM] |
| --- | --- | --- | --- | --- | --- | --- | --- | --- | --- | --- | --- | --- | --- | --- | --- | --- | --- | --- | --- |
| COC(=O)/C(C#N)=C1\N=NNN1CCCN1CCOCC1 | > 100 | > 100 | > 100 | > 100 | > 100 | > 100 | > 100 | > 100 |  |  |  |  |  |  |  |  |  |  |  |
| COc1cc2ccn3c4cc(OC)c(OC)cc4cc3c2cc1OC | > 100 | > 100 | > 100 | > 100 | > 100 | > 100 | > 100 | > 100 | > 100 |  |  |  |  |  |  |  |  |  |  |
| S=C(Nc1ccccc1)Nc1[nH]c(=S)sc1-c1nc2ccccc2[nH]1 | > 100 | > 100 | > 100 |  | > 100 | 80.9 | > 100 | > 100 |  |  |  |  |  |  |  |  |  |  |  |
| CC1CCC(O)C(C(O)CC2CC(=O)N(C)C(=O)C2)C1 (centres undefined) | > 100 | > 100 | > 100 | > 100 | > 100 | > 100 | > 100 | > 100 | > 100 |  |  |  |  |  |  |  |  |  |  |
| CC1OC(=O)N(CCCC=C2SCCCS2)C1=O (centres undefined) | > 100 |  |  | > 100 | > 100 | > 100 | > 100 | > 100 |  |  |  |  |  |  |  |  |  |  |  |
| CC(C)OP(=O)(CP(=O)(OC(C)C)OC(C)C)OC(C)C.[CH3][Sn]([Br])([Br])[Br] | > 100 | > 100 | > 100 | > 100 | > 100 | > 100 | > 100 | > 100 |  | > 100 | > 100 | > 100 | > 100 | > 100 | > 100 | > 100 | > 100 |  |  |
| COc1cc2c3c(c1OC)-c1ccccc1C(C(OC(C)=O)c1ccccc1)C3N(C)CC2 (centres undefined) | > 100 | > 100 | > 100 | > 100 | > 100 | > 100 | > 100 | > 100 |  |  |  |  |  |  |  |  |  |  |  |
| CC[C@@]1(OC(=O)CN)C(=O)OCc2c1cc1n(c2=O)Cc2cc3cc(N)ccc3nc2-1 | 1.45 | 0.0398 |  | 0.0705 | 0.0246 |  | > 100 | 0.0994 |  | < 0.0176 | < 0.01 |  | < 0.01 | < 0.01 |  | 2.19 | < 0.01 | 769 | > 100 |
| O=C1c2ccccc2-c2cc3ccccc3c(=O)n21 | > 100 |  | > 100 |  | > 100 |  | > 100 | > 100 | > 100 |  |  |  |  |  |  |  |  |  |  |
| O=C(O)c1cc(Cl)cc(NC(=O)C(Cl)Cl)c1Cl | > 100 | > 100 | > 100 |  | > 100 | > 100 | > 100 | > 100 |  |  |  |  |  |  |  |  |  |  |  |
| Cc1ccc(C2=Nc3c(N)ncnc3NC(c3cccc(Nc4ccnc5cc(C(F)(F)F)ccc45)c3)C2)cc1 (centres undefined) | 13.2 | 15.2 | 10.5 | 9.75 | 16.7 | 51 | 80.7 | 26.8 |  | 3.63 | 3.15 | 2.59 | 2.54 | 3.6 | 5.93 | 6.89 | 4.78 | 2590 | 8.44 |
| C/C(=N\NS(=O)(=O)c1ccc(C)cc1)c1ccc[n+]([O-])n1 | > 100 | 85.3 | > 100 | > 100 | > 100 | > 100 |  | > 100 | > 100 |  |  |  |  |  |  |  |  |  |  |
| COc1cc(C(c2cc3c(cc2O)OCO3)N2CCCC2)cc(OC)c1OC (centres undefined) | 48.9 | 27 | 88.1 | 20 | 33.1 | > 100 | 37.5 | 33.9 |  |  |  |  |  |  |  |  |  |  | 31.3 |
| CCN(CC)CCOc1ccc(/C=C2\C[C@H]3[C@@H]4CC=C5C[C@@H](OC(C)=O)CC[C@]5(C)[C@H]4CC[C@]3(C)[C@H]2OC(C)=O)cc1OC | 19.6 | 18.6 | 12.5 | 14.7 | 16.1 |  | 20.5 | 24.8 |  | 9.86 | 9.21 | 5.34 | 5.95 | 7.96 |  | 9.67 | 11 | 14100 | 31.8 |
| CC1=C(C#N)C(N)=C2C(C)=C(C#N)C(N)=C12 | > 100 | > 100 | > 100 | > 100 | > 100 | > 100 | > 100 | > 100 | > 100 |  |  |  |  |  |  |  |  |  |  |
| Cc1nnc2n1N=C(CC(=O)c1ccc(O)cc1O)CN2N | > 100 | > 100 | > 100 |  | > 100 | > 100 | > 100 | > 100 |  |  |  |  |  |  |  |  |  |  |  |
| Cc1cc(N(CCC#N)S(=O)(=O)c2ccccc2)ccc1C=O | > 100 | > 100 | > 100 |  | > 100 | > 100 |  | > 100 | > 100 |  |  |  |  |  |  |  |  |  |  |
| O=C1[C@H]2C(c3ccccc3)=NN(C(=O)c3ccccc3)[C@H]2C(=O)N1c1ccccc1 | > 100 |  |  |  | > 100 | > 100 | > 100 | > 100 |  |  |  |  |  |  |  |  |  |  |  |
| CCOC(=O)/C=C1\Nc2ccccc2C(c2ccccc2)=NC1OC(C)=O (centres undefined) | > 100 | > 100 | > 100 | > 100 | > 100 | > 100 |  | > 100 | > 100 |  |  |  |  |  |  |  |  |  |  |
| COc1ccc([Se]c2ccc(OC)cc2OC)c(OC)c1 | > 100 | > 100 |  | 16.3 | > 100 | 92.1 | > 100 | > 100 | 45.7 |  |  |  |  |  |  |  |  |  |  |
| Cc1ccc(NC(=O)CCC(=O)C2CC(=O)CC/C2=N\NC(=O)c2cc3ccccc3cc2O)cc1C (centres undefined) | > 100 | > 100 | 50.1 | > 100 | 38 | > 100 | > 100 | 33.9 | 97.4 |  |  |  |  |  |  |  |  |  |  |
